Columns and labels:
Assay type in all cases: in vivo
[1] = system: foxtail, giant (giant foxtail, Setaria faberi); assay: Test A preemergence soil spray, visual injury rating 0-100; settings: 1000 g ai/ha, 10 days, 0 = no effect, 100 = complete control
Procedure, shortened: (§1)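 Greenhouse test: loam/sand pots received a surfactant-containing formulation, as a preemergence directed soil spray or a postemergence spray on young plants. Injury was judged visually at day 10 relative to untreated controls.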

[2] = system: goosegrass (Eleusine indica); assay: as above; settings: 1000 g ai/ha, 10 days, 0 = no effect, 100 = complete control
Procedure, shortened: as §1

[3] = system: kochia (Bassia scoparia); assay: as above; settings: 1000 g ai/ha, 10 days, 0 = no effect, 100 = complete control
Procedure, shortened: as §1

[4] = system: palmer (palmer amaranth, palmer pigweed, Amaranthus palmeri); assay: as above; settings: 1000 g ai/ha, 10 days, 0 = no effect, 100 = complete control
Procedure, shortened: as §1

[5] = system: ragweed (common ragweed, Ambrosia artemisiifolia); assay: as above; settings: 1000 g ai/ha, 10 days, 0 = no effect, 100 = complete control
Procedure, shortened: as §1

[6] = system: ryegrass, Italian (italian ryegrass, Lolium multiflorum); assay: as above; settings: 1000 g ai/ha, 10 days, 0 = no effect, 100 = complete control
Procedure, shortened: as §1

[7] = system: blackgrass (Alopecurus myosuroides); assay: Test A postemergence application, visual injury rating 0-100; settings: Postemergence, 1000 g ai/ha, 0 to 100 scale, 10 days
Procedure, shortened: as §1

[8] = system: foxtail, giant (giant foxtail, Setaria faberi); assay: as above; settings: 1000 g ai/ha, 0 to 100 scale, 10 days
Procedure, shortened: as §1

[9] = system: goosegrass (Eleusine indica); assay: as above; settings: 1000 g ai/ha, 0 to 100 scale, 10 days
Procedure, shortened: as §1

[10] = system: horseweed (Erigeron canadensis); assay: as above; settings: Postemergence, 1000 g ai/ha, 0 to 100 scale, 10 days
Procedure, shortened: as §1

[11] = system: kochia (Bassia scoparia); assay: as above; settings: Postemergence, 1000 g ai/ha, 0 to 100 scale, 10 days
Procedure, shortened: as §1

[12] = system: palmer (palmer amaranth, palmer pigweed, Amaranthus palmeri); assay: as above; settings: Postemergence, 1000 g ai/ha, 0 to 100 scale, 10 days
Procedure, shortened: as §1

[13] = system: ragweed (common ragweed, Ambrosia artemisiifolia); assay: as above; settings: Postemergence, 1000 g ai/ha, 0 to 100 scale, 10 days
Procedure, shortened: as §1

[14] = system: ryegrass, Italian (italian ryegrass, Lolium multiflorum); assay: as above; settings: Postemergence, 1000 g ai/ha, 0 to 100 scale, 10 days
Procedure, shortened: as §1

[15] = system: barnyardgrass (Echinochloa crusgalli); assay: Test B flooded paddy test, visual plant response rating 0-100; settings: 250 g ai/ha, Flood, applied to paddy water, evaluated after 13 days
Procedure, shortened: (§2)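 Plants were grown to the 2-leaf stage, then pots were flooded to 3 cm above the soil and compound was applied directly to the paddy water, with that depth kept throughout.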

[16] = system: ducksalad (Heteranthera limosa); assay: as above; settings: 250 g ai/ha, Flood, applied to paddy water, evaluated after 13 days
Procedure, shortened: as §2

[17] = system: rice (Oryza sativa); assay: as above; settings: 250 g ai/ha, Flood, applied to paddy water, evaluated after 13 days
Procedure, shortened: as §2

[18] = system: sedge, umbrella (small-flower umbrella sedge, Cyperus difformis); assay: as above; settings: 250 g ai/ha, Flood, applied to paddy water, evaluated after 13 days
Procedure, shortened: as §2

[19] = system: blackgrass (Alopecurus myosuroides); assay: Test A preemergence soil spray, visual injury rating 0-100; settings: 1000 g ai/ha, 10 days, 0 = no effect, 100 = complete control
Procedure, shortened: as §1

[20] = system: galium (catchweed bedstraw, Galium aparine); assay: Test A postemergence application, visual injury rating 0-100; settings: Postemergence, 1000 g ai/ha, 0 to 100 scale, 10 days
Procedure, shortened: as §1

SMILES | Foxtail, Giant plant response rating (0 to 100 scale) [1] | Goosegrass plant response rating (0 to 100 scale) [2] | Kochia plant response rating (0 to 100 scale) [3] | Amaranth, Palmer / Pigweed, Palmer plant response rating (0 to 100 scale) [4] | Ragweed plant response rating (0 to 100 scale) [5] | Ryegrass, Italian plant response rating (0 to 100 scale) [6] | Blackgrass plant response rating [7] | Foxtail, Giant plant response rating [8] | Goosegrass plant response rating [9] | Horseweed plant response rating [10] | Kochia plant response rating [11] | Amaranth, Palmer plant response rating [12] | Ragweed plant response rating [13] | Ryegrass, Italian plant response rating [14] | Plant response rating, Barnyardgrass (0 to 100 scale, 0 is no effect and 100 is complete control) [15] | Plant response rating, Ducksalad (0 to 100 scale, 0 is no effect and 100 is complete control) [16] | Plant response rating, Rice (0 to 100 scale, 0 is no effect and 100 is complete control) [17] | Plant response rating, Sedge, Umbrella (0 to 100 scale, 0 is no effect and 100 is complete control) [18] | Blackgrass plant response rating (0 to 100 scale) [19] | Galium plant response rating [20]
COC(=O)[C@@H]1C=C[C@H](NC(=O)C2(C)CN(c3cc(F)cc(F)c3)C(=O)O2)C1 (stereo partly drawn) [Compound 27, Methyl (1S,4R)-4-[[[3-(3,5-difluorophenyl)-5-methyl-2-oxo-5-oxazolidinyl]carbonyl]amino]-2-cyclopentene-1-carboxylate] | 100 | 100 | 100 | 100 | 50 | 100 | 90 | 90 | 90 | 80 | 80 | 90 | 80 | 100 | 90 | 85 | 35 | 50 | – | –
CCOC(=O)C1C=CC(NC(=O)C2(C)CN(c3cc(F)cc(F)c3)C(=O)O2)C1 (centres unmarked) [Compound 28] | 100 | 100 | 100 | 100 | 80 | 100 | 100 | 90 | 90 | 80 | 80 | 90 | 70 | 80 | 85 | 75 | 70 | 65 | 90 | 70
